Data reported in ChEMBL document CHEMBL1201862, “PubChem BioAssay data set” (2004).
Calls of active or inactive are those of the source.

What was measured:
[1] = target: T1, Replicative DNA helicase DnaB (Mycobacterium tuberculosis, UniProt P9WMR3); experiment: DnaB intein splicing inhibitors, dose response, biochemical, cell-free fluorescence (AID 449749); assay type: functional
T1 sequence (P9WMR3 whole entry): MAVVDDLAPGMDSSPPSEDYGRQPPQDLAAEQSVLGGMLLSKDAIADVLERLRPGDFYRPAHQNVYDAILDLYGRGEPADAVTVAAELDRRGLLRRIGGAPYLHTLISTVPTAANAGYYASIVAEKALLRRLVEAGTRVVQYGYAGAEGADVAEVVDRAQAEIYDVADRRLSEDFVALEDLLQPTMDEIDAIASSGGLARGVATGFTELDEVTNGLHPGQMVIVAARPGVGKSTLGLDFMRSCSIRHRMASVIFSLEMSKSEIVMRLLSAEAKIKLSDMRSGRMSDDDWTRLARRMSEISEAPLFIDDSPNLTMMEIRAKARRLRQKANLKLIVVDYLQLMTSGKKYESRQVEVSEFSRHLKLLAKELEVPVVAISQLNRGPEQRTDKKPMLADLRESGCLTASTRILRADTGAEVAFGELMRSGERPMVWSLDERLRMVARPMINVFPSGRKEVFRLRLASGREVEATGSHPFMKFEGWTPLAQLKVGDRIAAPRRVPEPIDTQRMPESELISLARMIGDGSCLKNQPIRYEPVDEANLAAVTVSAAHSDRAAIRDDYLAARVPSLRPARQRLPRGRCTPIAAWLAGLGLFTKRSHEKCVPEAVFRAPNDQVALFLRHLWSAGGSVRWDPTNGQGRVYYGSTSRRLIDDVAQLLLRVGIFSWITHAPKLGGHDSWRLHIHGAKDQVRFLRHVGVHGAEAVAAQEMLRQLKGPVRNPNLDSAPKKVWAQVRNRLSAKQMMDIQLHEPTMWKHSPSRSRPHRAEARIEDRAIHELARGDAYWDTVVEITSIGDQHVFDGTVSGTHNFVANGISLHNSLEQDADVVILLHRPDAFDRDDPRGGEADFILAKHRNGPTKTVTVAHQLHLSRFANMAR

[2] = target: Heat shock protein HSP 90-alpha (Homo sapiens, UniProt P07900); experiment: Luminescence-based dose response biochemical high throughput screening assay for inhibitors of the Heat Shock Protein 90 (HSP90). [Related pubchem assays: 1831 (Summary AID.), 1846 (Confirmation screen.), 1789 (Primary screen.)]
[3] = target: T2, Hexokinase HKDC1 (Homo sapiens, UniProt Q2TB90); experiment: HKDC1 hexokinase inhibitors, dose response, biochemical, W721R variant (AID 504729); assay type: functional
T2 sequence (Q2TB90 whole entry): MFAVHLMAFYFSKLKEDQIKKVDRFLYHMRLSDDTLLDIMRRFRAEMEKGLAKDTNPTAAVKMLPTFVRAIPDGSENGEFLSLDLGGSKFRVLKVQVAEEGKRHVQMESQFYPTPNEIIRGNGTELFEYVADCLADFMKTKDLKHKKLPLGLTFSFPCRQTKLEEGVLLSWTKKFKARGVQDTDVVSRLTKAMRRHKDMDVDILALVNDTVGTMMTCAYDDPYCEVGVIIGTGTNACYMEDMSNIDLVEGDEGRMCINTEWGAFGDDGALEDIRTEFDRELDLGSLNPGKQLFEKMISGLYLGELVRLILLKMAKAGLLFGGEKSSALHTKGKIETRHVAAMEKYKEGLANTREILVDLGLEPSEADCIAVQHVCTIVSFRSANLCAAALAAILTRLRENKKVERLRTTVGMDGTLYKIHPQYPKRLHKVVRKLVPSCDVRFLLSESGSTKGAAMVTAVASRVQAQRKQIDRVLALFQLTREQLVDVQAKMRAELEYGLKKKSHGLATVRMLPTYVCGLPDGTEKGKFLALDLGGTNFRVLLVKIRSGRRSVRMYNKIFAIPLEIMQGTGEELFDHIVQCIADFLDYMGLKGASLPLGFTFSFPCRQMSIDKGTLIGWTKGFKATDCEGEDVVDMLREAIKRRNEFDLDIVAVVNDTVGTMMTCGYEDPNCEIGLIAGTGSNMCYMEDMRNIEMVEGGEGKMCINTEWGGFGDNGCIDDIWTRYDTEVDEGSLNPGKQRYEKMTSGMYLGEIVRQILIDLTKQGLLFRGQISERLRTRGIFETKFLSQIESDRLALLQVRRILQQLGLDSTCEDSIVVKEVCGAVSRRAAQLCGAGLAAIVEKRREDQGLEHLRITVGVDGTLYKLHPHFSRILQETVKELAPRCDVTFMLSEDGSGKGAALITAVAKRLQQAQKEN

[4] = target: T3, Caspase-3 (Homo sapiens, UniProt P42574); assay type: functional;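 further: Dose-response selectivity test against caspase-3 for candidate inhibitors of sentrin-specific proteases (SENPs)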
T3 sequence (P42574 whole entry): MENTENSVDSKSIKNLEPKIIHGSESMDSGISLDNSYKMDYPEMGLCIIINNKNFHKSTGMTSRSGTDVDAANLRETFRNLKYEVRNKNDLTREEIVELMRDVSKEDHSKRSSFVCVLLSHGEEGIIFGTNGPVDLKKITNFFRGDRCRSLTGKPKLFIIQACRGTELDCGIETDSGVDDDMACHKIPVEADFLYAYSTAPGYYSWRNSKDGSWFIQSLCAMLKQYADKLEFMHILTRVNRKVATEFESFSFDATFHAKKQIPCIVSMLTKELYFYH

[5] = target: T4, Tyrosyl-DNA phosphodiesterase 2 (Homo sapiens, UniProt O95551); experiment: human TDP2 enzyme inhibitors, dose response, biochemical, epi absorbance, IC50 (AID 743297)
T4 sequence (O95551 whole entry): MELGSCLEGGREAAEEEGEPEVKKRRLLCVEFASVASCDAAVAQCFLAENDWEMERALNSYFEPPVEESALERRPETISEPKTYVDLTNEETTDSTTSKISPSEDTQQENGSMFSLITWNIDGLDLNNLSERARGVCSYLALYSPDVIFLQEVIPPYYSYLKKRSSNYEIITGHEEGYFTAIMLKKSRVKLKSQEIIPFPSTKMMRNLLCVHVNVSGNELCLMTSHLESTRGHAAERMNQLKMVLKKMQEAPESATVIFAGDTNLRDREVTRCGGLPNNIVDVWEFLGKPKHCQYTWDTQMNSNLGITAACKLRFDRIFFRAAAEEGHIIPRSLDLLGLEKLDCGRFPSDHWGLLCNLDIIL

[6] = system: Streptococcus sp. 'group A'; experiment: growth inhibition of control SK(-) GAS strain, dose response, counter-screen for streptokinase expression inhibitor project, luminescence, kanamycin, BacTiterGlo, confirmation (AID 1900); assay type: functional, organism-based
[7] = target: Mitochondrial peptide methionine sulfoxide reductase (Bos taurus, UniProt P54149); assay type: functional;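 further: absorbance read-out, biochemical high-throughput dose-response screen for MsrA inhibitors, confirmatory; recombinant bovine MsrA coupled to E. coli TrxB with NADPH and selenocystamine; potency is for inhibitors of MsrA activity on DMSO substrate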
Sequence of Mitochondrial peptide methionine sulfoxide reductase (P54149 whole entry): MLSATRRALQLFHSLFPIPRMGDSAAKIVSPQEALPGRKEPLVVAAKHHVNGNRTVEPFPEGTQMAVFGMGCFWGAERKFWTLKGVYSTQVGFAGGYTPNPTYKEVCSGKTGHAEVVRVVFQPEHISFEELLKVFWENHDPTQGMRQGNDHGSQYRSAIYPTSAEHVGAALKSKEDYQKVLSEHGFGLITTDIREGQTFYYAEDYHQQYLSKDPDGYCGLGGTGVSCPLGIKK

[8] = system: Streptococcus; experiment: Group A Streptococcus viability loss, dose response, counter-screen for streptokinase expression inhibitor project, luminescence, BacTiterGlo (AID 1915); assay type: functional, organism-based;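 further: potency for reduction of bacterial viability or growth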

SMILES	AC50 [1]	IC50 [2]	IC50 [3]	IC50 [4]	IC50 [5]	EC50 [6]	IC50 [7]	EC50 [8]
COC(=O)C[C@]1(C(=O)OC)CN(C#N)N(c2ccc(Cl)cc2)C12c1ccccc1-c1ccccc12	1.83 µM (active)	3.75 µM (active)	3.35 µM (active)	–	–	–	–	–
O=C(Nc1ccc(C#Cc2ccccc2)cc1)C1CC1	–	–	–	43.6 µM (active)	–	–	–	–
CCCCn1c(NC(=O)c2ccco2)c(C(=O)OCC)c2nc3ccccc3nc21	–	–	–	15.8 µM (active)	> 128 µM (inactive)	–	–	–
Cc1ccccc1NC1=C/C(=N\S(=O)(=O)c2ccc(C(=O)O)cc2)c2ccccc2C1=O	105 µM (active)	0.522 µM (active)	2.53 µM (active)	–	1.41 µM (active)	1.67 µM (active)	62.4 µM (inactive)	5.01 µM (active)
Cc1ccc(NC2=C/C(=N/S(=O)(=O)c3cccs3)c3ccccc3C2=O)cc1	0.301 µM (active)	–	–	2.1 µM (active)	3.3 µM (active)	–	425 µM (inactive)	–
COc1ccc(-c2cc(-c3ccc(C)cc3)[nH]n2)c(O)c1	–	–	–	76.5 µM (active)	–	11 µM (active)	–	15.8 µM (active)
